# Reference: US20030139443A1, “Use of tachykinin antagonists, including NK-1 receptor antagonists, to modify unwanted behavior in dogs, cats and horses” (priority 2001, published 2003)
# What was measured:
# Type in all cases: in vivo, dog
# [1] = system: Adult dogs with spontaneous anxiety to isolation and/or unfamiliar humans; test: Example 1: anxiety behaviors of dogs during 15-minute separation phase, compound of Formula 1 vs. placebo, double-blind crossover; settings: for Hyperactivity Mean, Geometric Mean Time / Vocalization Mean, Geometric Mean Time: 0.1 mg/kg SC once daily, Separation Phase, vs. placebo
# Experimental: To evaluate the anxiolytic effects of a compound of Formula 1 vs. placebo after seven and twenty-one days of parenteral dosing at 0.1 mg/kg SID, the following procedure was followed.
# Adult dogs with spontaneous anxiety to isolation and/or unfamiliar humans were treated for twenty-one consecutive days with the compound of Formula 1 or a placebo control. Dogs were tested after seven and twenty-one days of dosing. “Day 0” was used to identify the initial day of dosing. The study was conducted using a double-blind crossover design. Treatment periods were 21 days in duration, with a 28 day washout period between treatments. Dogs were randomly assigned to treatment groups such that those receiving compound at the first replicate received placebo on the second replicate. The placebo treatments served as the negative control.
# All study participants were blinded to treatment groups. The compound of Formula 1 was administered at a dose of 0.1 mg/kg. The volume of vehicle control used for the placebo treatments was equivalent to the calculated volume of test compound that would have been administered had the animal been receiving drug. All test articles were administered by subcutaneous injection once daily.
# On the day of testing, each dog was placed in a cage in an isolated room for 15 minutes. A hidden observer timed any anxious behavior. Animals were tested on dosing day 6 and day 20, starting 2 hours after the dose of the day.
# Abnormal anxiety behaviors were studied. Observations were made on two different anxiety behaviors during a 15-minute separation phase. These behaviors are vocalization (barking, crying, growling) and hyperactivity (jumping, pacing, circling).
# [2] = system: dogs, anxiety associated with separation and with novel sight and sound stimuli; test: Example 2: canine anxiety model, separation phase and stimulation phase, various dosages of compound of Formula 1
# Experimental: The present invention also concerns a method for testing compounds for anxiolytic effect in dogs. The model is designed to induce separation anxiety as well as anxiety due to novel visual and auditory stimuli. To determine whether a test compound has an anxiolytic effect in dogs, separation anxiety and anxiety associated with novel sight and sound stimuli are measured both with and without administration of the test compound. In one preferred embodiment, observations are made on five different anxiety behaviors during a 15-minute separation phase and a 15-minute stimulation phase. These anxiety behaviors are vocalization (barking, crying, growling); hyperactivity (jumping, pacing, circling); destruction (chewing, pawing, digging); salivation; and tremor. […] In addition to direct observation, dogs are videotaped during testing for documentation of behaviors. In one preferred embodiment, a dog is removed from a group pen and placed in an isolation cage. A tester, positioned behind a screen out of view, starts a timer for 15 minutes and a video recorder. […] At the end of the separation phase, the timer is re-set to 15 minutes and a child-size doll mounted on a remote controlled car is driven around the pen continuously. After 10 minutes, the doll and car are driven behind the screen and a child's fazer gun with a variety of sounds is continually activated for 5 minutes. At the end of the stimulation phase, the accumulated time for each behavior is recorded and the video recorder stopped. The dog is removed from the isolation cage and returned to the group pen. Preferably, a complete cross-over study design with test compound and placebo is used. Each treatment period is 21 days in length. Study “day 0” is used to designate the initial day of dosing. Anxiety testing is conducted on study days 6 and 20 within each period. Animals are allocated to treatment group, sequence, pen and evaluation order using a randomization plan. Dogs remain within the same sequence during progression of the cross-over phases of the study so that all possible treatment orders are evenly represented. Preferably, “day 0” is staggered such that 3-6 dogs are evaluated per day. Treatment administration is adjusted on testing days such that each animal is tested at the predicted Cmax for the test compound. Anxiety testing is preferably conducted between 11 AM and 4 PM to account for time-of-day variations in behavior. Animals are fed at the conclusion of testing. A three-week washout is observed between periods. Various dosages of the compound of Formula 1 were tested to determine an optimal dose. Anxiety associated with separation and with novel sight and sound stimuli was measured. Observations are made on two different anxiety behaviors during a 15-minute separation phase and a 15-minute stimulation phase. These behaviors are vocalization (barking, crying, growling) and hyperactivity (jumping, pacing, circling). […] In addition to direct observation, dogs are videotaped during testing for documentation of behaviors. The dog is removed from a group pen and placed in an isolation cage in an adjacent room. The tester, positioned behind a screen out of view, starts a timer for 15 minutes and the video recorder. […] At the end of the separation phase, the timer is re-set to 15 minutes and a child-size doll mounted on a remote controlled car is driven around the pen continuously. After 10 minutes, the doll and car are driven behind the screen and a child's fazer gun with a variety of sounds is continually activated for 5 minutes. At the end of the stimulation phase, the accumulated time for each behavior is recorded and the video recorder stopped. The dog is removed from the isolation cage and returned to the group pen.
# [3] = system: Adult dogs, separation behavior; test: Example 3: behavior scores in dogs after ten consecutive oral doses of compound of Formula 2 vs. placebo, cross-over; settings: 5 mg/kg oral BID, 10 doses
# Experimental: Adult dogs received ten consecutive oral doses of a compound of Formula 2 at 5 mg/kg BID or placebo in a cross-over design and effects on behavior were determined beginning one-hour post-dose.
# Appropriate amounts of the compound of Formula 2 were weighed and placed in capsules. Capsules were back-filled with dextrose.
# Capsules were administered by placing them in the back of the throat and allowing the dogs to swallow. On the day of behavior testing, dogs were fasting at dosing.
# Dogs were divided equally into two treatment groups. Treatment Group 1 received 10 consecutive oral doses of the compound of Formula 2 BID at 5 mg/kg and Treatment Group 2 received 10 consecutive oral dextrose placebos BID. At the conclusion of the first half of the study, the protocol was repeated and dogs in Treatment Group 1 received 10 consecutive oral dextrose placebos BID and dogs in Treatment Group 2 received 10 consecutive oral doses of the compound of Formula 2 BID at 5 mg/kg.
# Dogs began compound dosing at 1830 and continued for 10 consecutive BID doses. The final dose (dose #10) occurred the morning of testing, one hour prior to the start. Dogs were tested in three 15-minute testing phases in which behavior was scored every 5 minutes. Dogs were videotaped during the testing period.
# [4] = 0.03 mg/kg, Separation, Day 6, vs. Day −1
# [5] = 0.03 mg/kg, Separation, Day 20, vs. Day −1
# [6] = 0.03 mg/kg, Stimulation, Day 6, vs. Day −1
# [7] = 0.03 mg/kg, Stimulation, Day 20, vs. Day −1
# [8] = 0.1 mg/kg, Separation Phase, Day 6, vs. placebo
# [9] = 0.1 mg/kg, Separation Phase, Day 20, vs. placebo
# [10] = 0.1 mg/kg, Separation, Day 6, vs. Day −1
# [11] = 0.1 mg/kg, Separation, Day 20, vs. Day −1
# [12] = 0.1 mg/kg, Stimulation Phase, Day 6, vs. placebo
# [13] = 0.1 mg/kg, Stimulation Phase, Day 20, vs. placebo
# [14] = 0.1 mg/kg, Stimulation, Day 6, vs. Day −1
# [15] = 0.1 mg/kg, Stimulation, Day 20, vs. Day −1
# [16] = 0.3 mg/kg, Separation, Day 6, vs. Day −1
# [17] = 0.3 mg/kg, Separation, Day 20, vs. Day −1
# [18] = 0.3 mg/kg, Stimulation, Day 6, vs. Day −1
# [19] = 0.3 mg/kg, Stimulation, Day 20, vs. Day −1
# [20] = 1 mg/kg, Separation Phase, Day 6, vs. placebo
# [21] = 1 mg/kg, Separation Phase, Day 20, vs. placebo
# [22] = 1 mg/kg, Stimulation Phase, Day 6, vs. placebo
# [23] = 1 mg/kg, Stimulation Phase, Day 20, vs. placebo
compound,measurement,setting,value
"COc1ccc(C(C)(C)C)cc1CN[C@H]1C2CCN(CC2)[C@H]1C(c1ccccc1)c1ccccc1 [Compound of Formula 1, (2S.3S) (2-Benzhydryl-1-aza-bicyclo[2.2.2]oct-3-yl)-(5-tert-butyl-2-methoxy-benzyl)-amine]",effectiveness at treating vocalization and hyperactivity resulting from separation,"[1]; 0.1 mg/kg SC, compared with placebo",more effective than placebo
same,"Hyperactivity Mean, Geometric Mean Time",[2]; [4],19.4 s
same,"Vocalization Mean, Geometric Mean Time",[2]; [4],10.6 s
same,"Hyperactivity Mean, Geometric Mean Time",[2]; [5],20.1 s
same,"Vocalization Mean, Geometric Mean Time",[2]; [5],12.1 s
same,"Hyperactivity Mean, Geometric Mean Time",[2]; [6],38.6 s
same,"Vocalization Mean, Geometric Mean Time",[2]; [6],24.5 s
same,"Hyperactivity Mean, Geometric Mean Time",[2]; [7],28.2 s
same,"Vocalization Mean, Geometric Mean Time",[2]; [7],35.6 s
same,"Hyperactivity Mean, Geometric Mean Time",[2]; [8],24.1 s
same,"Vocalization Mean, Geometric Mean Time",[2]; [8],29.0 s
same,"Hyperactivity Mean, Geometric Mean Time",[2]; [9],19.1 s
same,"Vocalization Mean, Geometric Mean Time",[2]; [9],25.5 s
same,"Hyperactivity Mean, Geometric Mean Time",[2]; [10],24.7 s
same,"Vocalization Mean, Geometric Mean Time",[2]; [10],15.5 s
same,"Hyperactivity Mean, Geometric Mean Time",[2]; [11],14.8 s
same,"Vocalization Mean, Geometric Mean Time",[2]; [11],9.1 s
same,"Hyperactivity Mean, Geometric Mean Time",[2]; [12],46.7 s
same,"Vocalization Mean, Geometric Mean Time",[2]; [12],35.3 s
same,"Hyperactivity Mean, Geometric Mean Time",[2]; [13],51.2 s
same,"Vocalization Mean, Geometric Mean Time",[2]; [13],26.4 s
same,"Hyperactivity Mean, Geometric Mean Time",[2]; [14],48.8 s
same,"Vocalization Mean, Geometric Mean Time",[2]; [14],36.8 s
same,"Hyperactivity Mean, Geometric Mean Time",[2]; [15],28.4 s
same,"Vocalization Mean, Geometric Mean Time",[2]; [15],24.7 s
same,"Hyperactivity Mean, Geometric Mean Time",[2]; [16],49.7 s
same,"Vocalization Mean, Geometric Mean Time",[2]; [16],20.9 s
same,"Hyperactivity Mean, Geometric Mean Time",[2]; [17],39.1 s
same,"Vocalization Mean, Geometric Mean Time",[2]; [17],18.2 s
same,"Hyperactivity Mean, Geometric Mean Time",[2]; [18],43.1 s
same,"Vocalization Mean, Geometric Mean Time",[2]; [18],15.9 s
same,"Hyperactivity Mean, Geometric Mean Time",[2]; [19],41.9 s
same,"Vocalization Mean, Geometric Mean Time",[2]; [19],19.2 s
same,"Hyperactivity Mean, Geometric Mean Time",[2]; [20],23.3 s
same,"Vocalization Mean, Geometric Mean Time",[2]; [20],5.8 s
same,"Hyperactivity Mean, Geometric Mean Time",[2]; [21],16.8 s
same,"Vocalization Mean, Geometric Mean Time",[2]; [21],6.9 s
same,"Hyperactivity Mean, Geometric Mean Time",[2]; [22],22.7 s
same,"Vocalization Mean, Geometric Mean Time",[2]; [22],6.5 s
same,"Hyperactivity Mean, Geometric Mean Time",[2]; [23],36.0 s
same,"Vocalization Mean, Geometric Mean Time",[2]; [23],7.4 s
same,most efficacious dosage in dogs among those dosages tested,"[2]; SC, dosages tested 0.03, 0.1, 0.3, 1 mg/kg",0.1 mg/kg
COc1ccc(OC(F)(F)F)cc1CN[C@H]1CCCN[C@H]1c1ccccc1 [Compound of Formula 2],"Separation Hyperactivity 0-15 min, behavior score as estimated duration of time",[3]; Dog ID 70954,2 s
same,"Separation Vocalization 0-15 min, behavior score as estimated duration of time",[3]; Dog ID 70954,0 s
same,"Separation Hyperactivity 0-15 min, behavior score as estimated duration of time",[3]; Dog ID 215155,2 s
same,"Separation Vocalization 0-15 min, behavior score as estimated duration of time",[3]; Dog ID 215155,12 s
same,"Separation Hyperactivity 0-15 min, behavior score as estimated duration of time",[3]; Dog ID 219622,30 s
same,"Separation Vocalization 0-15 min, behavior score as estimated duration of time",[3]; Dog ID 219622,22 s
same,"Separation Hyperactivity 0-15 min, behavior score as estimated duration of time",[3]; Dog ID 227641,2 s
same,"Separation Vocalization 0-15 min, behavior score as estimated duration of time",[3]; Dog ID 227641,2 s
same,"Separation Hyperactivity 0-15 min, behavior score as estimated duration of time",[3]; Dog ID 234923,2 s
same,"Separation Vocalization 0-15 min, behavior score as estimated duration of time",[3]; Dog ID 234923,0 s
same,"Separation Hyperactivity 0-15 min, behavior score as estimated duration of time",[3]; Dog ID 240893,6 s
same,"Separation Vocalization 0-15 min, behavior score as estimated duration of time",[3]; Dog ID 240893,0 s
same,"Separation Hyperactivity 0-15 min, behavior score as estimated duration of time",[3]; Dog ID 2943450,18 s
same,"Separation Vocalization 0-15 min, behavior score as estimated duration of time",[3]; Dog ID 2943450,30 s
same,"Separation Hyperactivity 0-15 min, behavior score as estimated duration of time",[3]; Dog ID HIHMFU,12 s
same,"Separation Vocalization 0-15 min, behavior score as estimated duration of time",[3]; Dog ID HIHMFU,0 s
same,"Separation Hyperactivity 0-15 min, behavior score as estimated duration of time",[3]; Mean of 8 dogs,9.25 s
same,"Separation Vocalization 0-15 min, behavior score as estimated duration of time",[3]; Mean of 8 dogs,8.25 s
same,"Hyperactivity Mean, Geometric Mean Time",[1]; Day 6,24.1 s
same,"Vocalization Mean, Geometric Mean Time",[1]; Day 6,29.0 s
same,"Hyperactivity Mean, Geometric Mean Time",[1]; Day 20,19.1 s
same,"Vocalization Mean, Geometric Mean Time",[1]; Day 20,25.5 s
